Test results from US8519149B2, “Tricyclic compounds as mPGES-1 inhibitors” (Glenmark Pharmaceuticals S.A., priority 2010, dated 2013).

Target: T1, Recombinant human mPGES-1 (Homo sapiens, UniProt O14684)
T1 sequence (O14684 1-152): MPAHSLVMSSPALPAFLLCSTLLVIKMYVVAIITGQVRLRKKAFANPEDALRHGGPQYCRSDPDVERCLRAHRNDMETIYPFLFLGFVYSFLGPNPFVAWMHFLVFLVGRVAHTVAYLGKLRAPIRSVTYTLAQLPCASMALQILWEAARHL
Assay: In-vitro mPGES-1 enzyme inhibition assay (PGE2 formation from PGH2, HTRF detection)
Type: biochemical
Details: for inhibition at 1 µM: 1 μM test compound, read-out: Percentage inhibition at 1 μM; for inhibition at 1 µM / inhibition at 10 µM: recombinant human mPGES-1 microsomal fraction; for inhibition at 10 µM: 10 μM test compound, read-out: Percentage inhibition at 10 μM; for IC50: class symbols, selected examples
How it was run: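 IC50 values were derived by nonlinear regression of percent inhibition relative to enzyme reactions run without inhibitor. PGE2 formed from PGH2 with GSH was quantified by antibody-based HTRF after stannous chloride quench. Enzyme source was human mPGES-1 microsomes at 40-60 μg/mL protein; DMSO 0.5% (v/v).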

| SMILES | inhibition at 1 µM [%] | inhibition at 10 µM [%] | IC50 [nM] |
| --- | --- | --- | --- |
| Cn1c(Nc2c(F)cccc2Cl)nc2cc(C(=O)Nc3cccc(C(F)(F)F)c3)c3c(c21)CC(C)(C)O3 [Example-139, 2-((2-Chloro-6-fluorophenyl)amino)-1,7,7-trimethyl-N-(3-(trifluoromethyl)phenyl)-7,8-dihydro-1H-benzofuro[4,5-d]imidazole-5-carboxamide] | 95.9 | 99.2 | < 50 |
| CC1(C)Cc2c(c(C(=O)Nc3ccc(C(F)(F)F)cc3)cc3nc(Nc4ccccc4C(C)(C)C)[nH]c23)O1 [Example-102, 2-[(2-tert-Butylphenyl)amino]-7,7-dimethyl-N-[4-(trifluoromethyl)phenyl]-7,8-dihydro-1H-furo[3,2-e]benzimidazole-5-carboxamide] | 19.3 | 22.8 |  |
| Cn1c(Nc2c(F)cccc2Cl)nc2cc(C(=O)Nc3ccc(C4CC4)cc3)c3c(c21)CC(C)(C)O3 [Example-167, 2-((2-Chloro-6-fluorophenyl)amino)-N-(4-cyclopropylphenyl)-1,7,7-trimethyl-7,8-dihydro-1H-benzofuro[4,5-d]imidazole-5-carboxamide] | 96.9 | 98.3 | < 50 |
| CC1(C)Cc2c(c(C(=O)Nc3ccc(C(F)(F)F)cc3)cc3nc(Nc4c(Cl)cncc4Cl)[nH]c23)O1 [Example-10, 2-[(3,5-Dichloropyridin-4-yl)amino]-7,7-dimethyl-N-[4-(trifluoromethyl)phenyl]-7,8-dihydro-1H-furo[3,2-e]benzimidazole-5-carboxamide] | 83.4 | 91.8 |  |
| Cc1nc2c(o1)c(C(=O)NCC1CCCCC1)cc1nc(Nc3c(Cl)cccc3Cl)[nH]c12 [Example-183, N-(Cyclohexylmethyl)-7-[(2,6-dichlorophenyl)amino]-2-methyl-8H-imidazo[4,5-e][1,3]benzoxazole-4-carboxamide] | 97.5 | 93.1 | < 50 |
| Cc1cccc(Cl)c1Nc1nc2cc(C(=O)Nc3cccc(C(F)(F)F)c3F)c3c(c2[nH]1)CC(C)(C)O3 [Example-164, 2-((2-Chloro-6-methylphenyl)amino)-N-(2-fluoro-3-(trifluoromethyl)phenyl)-7,7-dimethyl-7,8-dihydro-1H-benzofuro[4,5-d]imidazole-5-carboxamide] | 93.5 | 94.5 | < 50 |
| CC(C)(C)CC(C)(C)NC(=O)c1cc2nc(Nc3c(Cl)cncc3Cl)[nH]c2c2c1OC(C)(C)C2 [Example-25, 2-[(3,5-Dichloropyridin-4-yl)amino]-7,7-dimethyl-N-(2,4,4-trimethylpentan-2-yl)-7,8-dihydro-1H-furo[3,2-e]benzimidazole-5-carboxamide] | 92 | 98.2 | < 50 |
| CC1(C)Cc2c(c(C(=O)Nc3ccc(C(F)(F)F)cn3)cc3nc(Nc4c(F)cccc4Cl)[nH]c23)O1 [Example-122, 2-[(2-Chloro-6-fluorophenyl)amino]-7,7-dimethyl-N-[5-(trifluoromethyl)pyridin-2-yl]-7,8-dihydro-1H-furo[3,2-e]benzimidazole-5-carboxamide] | 96 | 98.1 | < 50 |
| Cc1cc2c(o1)c(C(=O)NCc1ccc(F)cc1)cc1nc(Nc3c(F)cccc3Cl)[nH]c12 [Example-48, 2-[(2-Chloro-6-fluorophenyl)amino]-N-(4-fluorobenzyl)-7-methyl-1H-furo[3,2-e]benzimidazole-5-carboxamide] | 70.8 | 96.7 |  |
| Cc1ccc(Nc2nc3cc(C(=O)NCc4ccc(C(F)(F)F)cc4)c4c(c3[nH]2)CC(C)(C)O4)c(Cl)c1 [Example-92, 2-[(2-Chloro-4-methylphenyl)amino]-7,7-dimethyl-N-[4-(trifluoromethyl)benzyl]-7,8-dihydro-1H-furo[3,2-e]benzimidazole-5-carboxamide] | 75.4 | 76 |  |
| CC1(C)Cc2c(c(C(=O)Nc3nc(C(C)(C)C)cs3)cc3nc(Nc4c(F)cccc4Cl)[nH]c23)O1 [Example-53, N-(4-tert-Butyl-1,3-thiazol-2-yl)-2-[(2-chloro-6-fluorophenyl)amino]-7,7-dimethyl-7,8-dihydro-1H-furo[3,2-e]benzimidazole-5-carboxamide] | 47.2 | 85.4 |  |
| Cc1nnc(NC(=O)c2cc3nc(Nc4c(Cl)cccc4Cl)[nH]c3c3c2OC(C)(C)C3)s1 [Example-38, 2-[(2,6-Dichlorophenyl)amino]-7,7-dimethyl-N-(5-methyl-1,3,4-thiadiazol-2-yl)-7,8-dihydro-1H-furo[3,2-e]benzimidazole-5-carboxamide] | 74.5 | 81.5 |  |
| CC1(C)Cc2c(c(C(=O)Nc3ccc(C(F)(F)F)cc3)cc3nc(Nc4ccccc4Cl)[nH]c23)O1 [Example-89, 2-[(2-Chlorophenyl)amino]-7,7-dimethyl-N-[4-(trifluoromethyl)phenyl]-7,8-dihydro-1H-furo[3,2-e]benzimidazole-5-carboxamide] | 97.1 | 97.1 | < 50 |
| CC1(C)Cc2c(c(C(=O)Nc3ccccc3Br)cc3nc(Nc4c(Cl)cccc4Cl)[nH]c23)O1 [Example-72, N-(2-Bromophenyl)-2-[(2,6-dichlorophenyl)amino]-7,7-dimethyl-7,8-dihydro-1H-furo[3,2-e]benzimidazole-5-carboxamide] | 93.2 | 93.7 | < 50 |
| Cc1cccc(Cl)c1Nc1nc2cc(C(=O)Nc3cc(F)c(F)cc3F)c3c(c2[nH]1)CC(C)(C)O3 [Example-192, 2-((2-Chloro-6-methylphenyl)amino)-7,7-dimethyl-N-(2,4,5-trifluorophenyl)-7,8-dihydro-1H-benzofuro[4,5-d]imidazole-5-carboxamide] | 97.1 | 96.5 | < 50 |
| CC1(C)Cc2c(c(C(=O)Nc3ccc(C4CC4)cc3)cc3nc(Nc4c(F)cccc4Cl)[nH]c23)O1 [Example-140, 2-((2-Chloro-6-fluorophenyl)amino)-N-(4-cyclopropylphenyl)-7,7-dimethyl-7,8-dihydro-1H-benzofuro[4,5-d]imidazole-5-carboxamide] | 97.1 | 98.9 | < 50 |
| Cc1cc2c(o1)c(C(=O)Nc1ccccc1F)cc1nc(Nc3c(Cl)cccc3Cl)[nH]c12 [Example-67, 2-[(2,6-Dichlorophenyl)amino]-N-(2-fluorophenyl)-7-methyl-1H-furo[3,2-e]benzimidazole-5-carboxamide] | 92.8 | 96.2 |  |
| CC1(C)Cc2c(c(C(=O)NCc3ccccc3C(F)(F)F)cc3nc(Nc4c(F)cccc4Cl)[nH]c23)O1 [Example-80, 2-[(2-Chloro-6-fluorophenyl)amino]-7,7-dimethyl-N-[2-(trifluoromethyl)benzyl]-7,8-dihydro-1H-furo[3,2-e]benzimidazole-5-carboxamide] | 93.2 | 92 | < 50 |
| CC1(C)Cc2c(c(C(=O)NCCN3CCOCC3)cc3nc(Nc4c(Cl)cccc4Cl)[nH]c23)O1 [Example-70, 2-[(2,6-Dichlorophenyl)amino]-7,7-dimethyl-N-[2-(morpholin-4-yl)ethyl]-7,8-dihydro-1H-furo[3,2-e]benzimidazole-5-carboxamide] | 69.1 | 88.2 |  |
| Cc1cccc(Cl)c1Nc1nc2cc(C(=O)Nc3cc(C(F)(F)F)ccc3F)c3c(c2[nH]1)CC(C)(C)O3 [Example-110, 2-[(2-Chloro-6-methylphenyl)amino]-N-[2-fluoro-5-(trifluoromethyl)phenyl]-7,7-dimethyl-7,8-dihydro-1H-furo[3,2-e]benzimidazole-5-carboxamide] | 96.6 | 97.2 | < 50 |
| Cc1cccc(Cl)c1Nc1nc2cc(C(=O)Nc3ccc(C(F)(F)F)cn3)c3c(c2[nH]1)CC(C)(C)O3 [Example-124, 2-[(2-Chloro-6-methylphenyl)amino]-7,7-dimethyl-N-[5-(trifluoromethyl)pyridin-2-yl]-7,8-dihydro-1H-furo[3,2-e]benzimidazole-5-carboxamide] | 97.1 | 100 | < 50 |
| CC1(C)Cc2c(c(C(=O)Nc3cc(C(F)(F)F)ccc3F)cc3nc(NCc4ccccc4Cl)[nH]c23)O1 [Example-145, 2-((2-Chlorobenzyl)amino)-N-(2-fluoro-5-(trifluoromethyl)phenyl)-7,7-dimethyl-7,8-dihydro-1H-benzofuro[4,5-d]imidazole-5-carboxamide] | 59.5 | 60.4 |  |
| CC1(C)Cc2c(c(C(=O)Nc3cccc(C(F)(F)F)c3F)cc3nc(Nc4c(F)cccc4Cl)[nH]c23)O1 [Example-168, 2-((2-Chloro-6-fluorophenyl)amino)-N-(2-fluoro-3-(trifluoromethyl)phenyl)-7,7-dimethyl-7,8-dihydro-1H-benzofuro[4,5-d]imidazole-5-carboxamide] | 92.5 | 97.7 | < 50 |
| Cc1nc2c(o1)c(C(=O)Nc1ccc(C(C)(C)C#N)cc1)cc1nc(Nc3c(Cl)cccc3Cl)[nH]c12 [Example-190, N-[4-(2-Cyanopropan-2-yl)phenyl]-7-[(2,6-dichlorophenyl)amino]-2-methyl-8H-imidazo[4,5-e][1,3]benzoxazole-4-carboxamide] | 81.2 | 89.5 | > 100 |
